Structures can show the parent of a compound that is named as a salt.

By IC50 is commonly meant the concentration that inhibits the measured activity by half.

The target in the first series is T1, ENaC (Homo sapiens, UniProt P37088+P51168+P51170).
T1 construct: host or cells: primary human bronchial epithelial cells (HBECs) differentiated at air-liquid interface
T1 sequence (P37088 1-669): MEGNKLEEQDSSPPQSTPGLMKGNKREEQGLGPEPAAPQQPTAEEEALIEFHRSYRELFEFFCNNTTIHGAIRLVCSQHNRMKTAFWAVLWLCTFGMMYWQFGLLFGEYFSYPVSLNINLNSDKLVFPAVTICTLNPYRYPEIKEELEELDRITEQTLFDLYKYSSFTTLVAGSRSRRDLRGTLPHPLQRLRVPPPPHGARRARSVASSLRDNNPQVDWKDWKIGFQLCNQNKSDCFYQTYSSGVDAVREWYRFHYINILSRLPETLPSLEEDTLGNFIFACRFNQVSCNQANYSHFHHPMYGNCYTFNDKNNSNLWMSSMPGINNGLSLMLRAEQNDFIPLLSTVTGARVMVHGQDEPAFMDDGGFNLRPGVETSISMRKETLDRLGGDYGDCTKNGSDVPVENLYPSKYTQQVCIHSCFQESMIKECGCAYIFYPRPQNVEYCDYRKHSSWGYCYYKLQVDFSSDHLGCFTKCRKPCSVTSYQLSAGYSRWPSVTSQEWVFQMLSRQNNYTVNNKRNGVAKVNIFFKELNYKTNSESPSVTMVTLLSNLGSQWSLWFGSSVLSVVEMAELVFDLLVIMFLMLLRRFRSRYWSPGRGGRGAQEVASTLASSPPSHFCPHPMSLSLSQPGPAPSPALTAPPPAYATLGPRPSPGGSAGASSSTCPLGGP
T1 sequence (P51168 1-640): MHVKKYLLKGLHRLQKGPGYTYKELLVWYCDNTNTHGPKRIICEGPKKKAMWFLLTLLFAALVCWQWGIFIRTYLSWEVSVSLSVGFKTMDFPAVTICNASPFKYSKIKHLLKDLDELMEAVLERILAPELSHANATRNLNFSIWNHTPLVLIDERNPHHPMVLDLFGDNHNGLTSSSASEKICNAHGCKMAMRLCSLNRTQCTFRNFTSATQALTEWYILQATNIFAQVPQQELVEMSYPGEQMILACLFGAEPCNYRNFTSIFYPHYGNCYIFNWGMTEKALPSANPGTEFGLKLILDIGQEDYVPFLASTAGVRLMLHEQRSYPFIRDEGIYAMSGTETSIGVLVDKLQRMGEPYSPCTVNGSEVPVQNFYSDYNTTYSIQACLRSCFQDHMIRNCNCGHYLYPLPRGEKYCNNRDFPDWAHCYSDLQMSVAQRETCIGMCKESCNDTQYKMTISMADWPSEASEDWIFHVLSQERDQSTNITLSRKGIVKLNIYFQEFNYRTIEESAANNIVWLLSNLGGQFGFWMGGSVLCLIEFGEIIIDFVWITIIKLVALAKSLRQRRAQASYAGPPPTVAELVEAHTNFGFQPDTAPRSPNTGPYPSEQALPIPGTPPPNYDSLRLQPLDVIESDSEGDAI
T1 sequence (P51170 1-649): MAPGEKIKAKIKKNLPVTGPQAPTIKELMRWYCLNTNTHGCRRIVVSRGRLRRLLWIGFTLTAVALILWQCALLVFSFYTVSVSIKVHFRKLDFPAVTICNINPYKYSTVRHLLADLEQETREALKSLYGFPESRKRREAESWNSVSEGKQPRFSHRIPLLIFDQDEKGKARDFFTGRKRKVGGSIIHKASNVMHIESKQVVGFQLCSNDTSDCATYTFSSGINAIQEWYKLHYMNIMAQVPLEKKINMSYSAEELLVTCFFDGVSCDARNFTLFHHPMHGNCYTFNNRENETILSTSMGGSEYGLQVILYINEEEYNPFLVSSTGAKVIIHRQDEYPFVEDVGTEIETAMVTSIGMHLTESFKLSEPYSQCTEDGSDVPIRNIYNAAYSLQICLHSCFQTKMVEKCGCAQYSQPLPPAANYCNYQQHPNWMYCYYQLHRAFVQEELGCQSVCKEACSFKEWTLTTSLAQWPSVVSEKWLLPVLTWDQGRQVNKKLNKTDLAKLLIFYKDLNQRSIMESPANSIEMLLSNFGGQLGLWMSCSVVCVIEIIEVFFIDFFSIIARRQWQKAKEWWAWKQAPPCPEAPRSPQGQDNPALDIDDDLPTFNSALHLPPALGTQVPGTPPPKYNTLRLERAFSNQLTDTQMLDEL
Put plainly: Short circuit current assay to determine ENaC blocker potency in human bronchial epithelial cells. The format is cell-based. Conditions: 50% inhibition of total amiloride-sensitive ISC, apical addition, read-out: Averages.ENaC IC50 (nM) Avg. The method, boiled down: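 Primary human bronchial epithelial cells at air-liquid interface (days 14–21) were voltage-clamped at 0 mV in Ussing chambers (Ringer, pH 7.4, 37° C.). Compounds were added apically as cumulative concentrations, then 10 μM amiloride. IC50 was taken as 50% inhibition of amiloride-sensitive ISC.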
Consider `CCn1c(CNC(=O)c2nc3cc[nH]c3nc2N)[n+](CC)c2ccc(C(=O)N3CCC(CN(C[C@H](O)[C@@H](O)[C@H](O)[C@H](O)CO)C[C@H](O)[C@@H](O)[C@H](O)[C@H](O)CO)CC3)cc21` [Example 52, 2-[({3-amino-5H-pyrrolo[2,3-b]pyrazin-2-yl}formamido)methyl]-5-[4-({bis[(2S,3R,4R,5R)-2,3,4,5,6-pentahydroxyhexyl]amino}methyl)piperidine-1-carbonyl]-1,3-diethyl-1H-1,3-benzodiazol-3-ium], for which the IC50 was 69 nM.

For the compound `CCn1c(CNC(=O)c2nc3cc(C)[nH]c3nc2N)[n+](C)c2ccc(OC)cc21` [Example 19, 2-[({3-amino-6-methyl-5H-pyrrolo[2,3-b]pyrazin-2-yl}formamido)methyl]-1-ethyl-6-methoxy-3-methyl-1H-1,3-benzodiazol-3-ium], the IC50 is 8 nM. Still for that read-out and setting: next, `CCn1c(CNC(=O)c2nc3cc[nH]c3nc2N)[n+](CC(=O)OC)c2ccc(OC)cc21` [Example 9, 2-[({3-amino-5H-pyrrolo[2,3-b]pyrazin-2-yl}formamido)methyl]-1-ethyl-6-methoxy-3-(2-methoxy-2-oxoethyl)-1H-1,3-benzodiazol-3-ium bromide]: 48 nM; `CCn1c(CNC(=O)c2nc3cc[nH]c3nc2N)[n+](CC)c2ccc(CCCNC(=N)N)cc21` [Example 33, 2-[({3-amino-5H-pyrrolo[2,3-b]pyrazin-2-yl}formamido)methyl]-6-(3-carbamimidamidopropyl)-1,3-diethyl-1H-1,3-benzodiazol-3-ium]: 3 nM. Consider `CCn1c(CNC(=O)c2nc3cc[nH]c3nc2N)[n+](CC)c2ccc(C(=O)NCCN3CCC(N)CC3)cc21` [Example 42, 2-[({3-amino-5H-pyrrolo[2,3-b]pyrazin-2-yl}formamido)methyl]-6-{[2-(4-aminopiperidin-1-yl)ethyl]carbamoyl}-1,3-diethyl-1H-1,3-benzodiazol-3-ium], for which the IC50 came out at 10 nM. With `CCn1c(CNC(=O)c2nc3cc[nH]c3nc2N)[n+](CC)c2ccc(C3CCNCC3)cc21` [Example 30, 2-[({3-amino-5H-pyrrolo[2,3-b]pyrazin-2-yl}formamido)methyl]-1,3-diethyl-6-(piperidin-4-yl)-1H-1,3-benzodiazol-3-ium], the IC50 worked out at 6 nM. In the case of `CCn1c(CNC(=O)c2nc3cc[nH]c3nc2N)[n+](CC)c2ccc(CCCNC(=O)OC(C)(C)C)cc21` [Example 24, 2-[({3-amino-5H-pyrrolo[2,3-b]pyrazin-2-yl}formamido)methyl]-6-(3-{[(tert-butoxy)carbonyl]amino}propyl)-1,3-diethyl-1H-1,3-benzodiazol-3-ium], the IC50 turned out to be 6 nM. The same measure, in the same setting: next, `CCn1c(CNC(=O)c2nc3cc[nH]c3nc2N)[n+](C)c2ccc(OC(F)(F)F)cc21` [Example 6, 2-[({3-amino-5H-pyrrolo[2,3-b]pyrazin-2-yl}formamido)methyl]-1-ethyl-3-methyl-6-(trifluoromethoxy)-1H-1,3-benzodiazol-3-ium formate]: 5 nM; `CCn1c(CNC(=O)c2nc3cc[nH]c3nc2N)[n+](CC)c2ccc(OCCN(C[C@H](O)[C@@H](O)[C@H](O)[C@H](O)CO)C[C@H](O)[C@@H](O)[C@H](O)[C@H](O)CO)cc21` [Example 43, 2-[({3-amino-5H-pyrrolo[2,3-b]pyrazin-2-yl}formamido)methyl]-5-(2-{bis[(2S,3R,4R,5R)-2,3,4,5,6-pentahydroxyhexyl]amino}ethoxy)-1,3-diethyl-1H-1,3-benzodiazol-3-ium]: 51 nM; `CCn1c(CNC(=O)c2nc3cc[nH]c3nc2N)[n+](CC)c2ccc(-c3cnn(C4CCN(C(=O)OC(C)(C)C)CC4)c3)cc21` [Example 26, 2-[({3-amino-5H-pyrrolo[2,3-b]pyrazin-2-yl}formamido)methyl]-6-(1-{1-[(tert-butoxy)carbonyl]piperidin-4-yl}-1H-pyrazol-4-yl)-1,3-diethyl-1H-1,3-benzodiazol-3-ium]: 1 nM. Take `CCn1c(CNC(=O)c2nc3cc[nH]c3nc2N)[n+](C)c2ccc(C(F)(F)F)cc21` [Example 5, 2-[({3-amino-5H-pyrrolo[2,3-b]pyrazin-2-yl}formamido)methyl]-1-ethyl-3-methyl-6-(trifluoromethyl)-1H-1,3-benzodiazol-3-ium formate]: the IC50 is 9 nM. On the same count and under the same terms, the result for `CCn1c(CNC(=O)c2nc3cc[nH]c3nc2N)[n+](CC(=O)O)c2ccc(OC)cc21` [Example 10, 2-[({3-amino-5H-pyrrolo[2,3-b]pyrazin-2-yl}formamido)methyl]-3-(carboxylatomethyl)-1-ethyl-6-methoxy-1H-1,3-benzodiazol-3-ium] reads 199 nM; that for `CCn1c(CNC(=O)c2nc3cc[nH]c3nc2N)[n+](CC(N)=O)c2ccc(OC)cc21` [Example 11, 2-[({3-amino-5H-pyrrolo[2,3-b]pyrazin-2-yl}formamido)methyl]-3-(carbamoylmethyl)-1-ethyl-6-methoxy-1H-1,3-benzodiazol-3-ium bromide], 22 nM. With `CCn1c(CNC(=O)c2nc3cc[nH]c3nc2N)[n+](CC)c2ccc(-c3cnn(C4CCN(C[C@H](O)[C@@H](O)[C@H](O)[C@H](O)CO)CC4)c3)cc21` [Example 47, 2-[({3-amino-5H-pyrrolo[2,3-b]pyrazin-2-yl}formamido)methyl]-1,3-diethyl-6-(1-{1-[(2S,3R,4R,5R)-2,3,4,5,6-pentahydroxyhexyl]piperidin-4-yl}-1H-pyrazol-4-yl)-1H-1,3-benzodiazol-3-ium], the IC50 is 5 nM. Take `CCn1c(CNC(=O)c2nc3cc[nH]c3nc2N)[n+](CC)c2ccc(C(=O)NC3CCNCC3)cc21` [Example 40, 2-[({3-amino-5H-pyrrolo[2,3-b]pyrazin-2-yl}formamido)methyl]-1,3-diethyl-6-[(piperidin-4-yl)carbamoyl]-1H-1,3-benzodiazol-3-ium]: the IC50 is 7 nM.

For `CCn1c(CNC(=O)c2nc3cc[nH]c3nc2N)[n+](CC)c2ccc(C(=O)NCCCN(C[C@H](O)[C@@H](O)[C@H](O)[C@H](O)CO)C[C@H](O)[C@@H](O)[C@H](O)[C@H](O)CO)cc21` [Example 48, 2-[({3-amino-5H-pyrrolo[2,3-b]pyrazin-2-yl}formamido)methyl]-6-[(3-{bis[(2S,3R,4R,5R)-2,3,4,5,6-pentahydroxyhexyl]amino}propyl)carbamoyl]-1,3-diethyl-1H-1,3-benzodiazol-3-ium], the IC50 was 18 nM.

Test system in another series: not listed separately
Put plainly: Bronchoalveolar lavage (BAL) procedure: compound levels after intratracheal administration. The class given is in vivo. Conditions: bronchoalveolar lavage fluid (BAL), other: intratracheal, 0.1 mg/kg, rat, 0.1 mg/mL solution in 5% dextrose, 1 mL/Kg, BAL 6 hours after administration, LC/MS/MS. The procedure: Example 69—Bronchoalveolar Lavage (BAL) Procedure A 0.1 mg/mL solution of ENaC inhibitor in 5% dextrose was administered intratracheally to a rat weighing 225-250 g. A volume of 1 mL/Kg was used. After 6 hours, lungs were lavaged with 3×4 mL of sterile saline. A 1 mL aliquot was subsequently snap frozen. Lungs were excised, weighed and snap frozen. Compound levels in the BAL and lung tissue were subsequently determined using LC/MS/MS bioanalysis.
As to `CCn1c(CNC(=O)c2nc3cc[nH]c3nc2N)[n+](CC)c2ccc(C(=O)N3CCC(CN(C[C@H](O)[C@@H](O)[C@H](O)[C@H](O)CO)C[C@H](O)[C@@H](O)[C@H](O)[C@H](O)CO)CC3)cc21` [Example 52, 2-[({3-amino-5H-pyrrolo[2,3-b]pyrazin-2-yl}formamido)methyl]-5-[4-({bis[(2S,3R,4R,5R)-2,3,4,5,6-pentahydroxyhexyl]amino}methyl)piperidine-1-carbonyl]-1,3-diethyl-1H-1,3-benzodiazol-3-ium], the concentration at 6 h stood at 302 ng/mL.

For the origin of these results see patent US12371436B2, “Substituted benzodiazoliums as ENaC inhibitors” (ENTERPRISE THERAPEUTICS LIMITED, priority 2016, dated 2025).
